Assay results as given in article PMC6934184, “Selective DNA-PKcs inhibition extends the therapeutic index of localized radiotherapy and chemotherapy” (The Journal of Clinical Investigation, 2019).

Target: T1, LATS2 (Homo sapiens, UniProt Q9NRM7)
T1 construct: purchased Thermo Fisher Scientific (Life Technologies) SelectScreen
Assay: SelectScreen LanthaScreen
Type: binding
Details: 1 µM
Procedure, shortened: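 NU5455 was profiled across the SelectScreen Broad panel of kinase activity and binding assays. Z'LYTE reactions such as CSF1R ran at apparent Km ATP, while the Adapta CAMK1 assay used ATP listed as 10. Values are given as percent.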

T1 sequence (Q9NRM7 whole entry): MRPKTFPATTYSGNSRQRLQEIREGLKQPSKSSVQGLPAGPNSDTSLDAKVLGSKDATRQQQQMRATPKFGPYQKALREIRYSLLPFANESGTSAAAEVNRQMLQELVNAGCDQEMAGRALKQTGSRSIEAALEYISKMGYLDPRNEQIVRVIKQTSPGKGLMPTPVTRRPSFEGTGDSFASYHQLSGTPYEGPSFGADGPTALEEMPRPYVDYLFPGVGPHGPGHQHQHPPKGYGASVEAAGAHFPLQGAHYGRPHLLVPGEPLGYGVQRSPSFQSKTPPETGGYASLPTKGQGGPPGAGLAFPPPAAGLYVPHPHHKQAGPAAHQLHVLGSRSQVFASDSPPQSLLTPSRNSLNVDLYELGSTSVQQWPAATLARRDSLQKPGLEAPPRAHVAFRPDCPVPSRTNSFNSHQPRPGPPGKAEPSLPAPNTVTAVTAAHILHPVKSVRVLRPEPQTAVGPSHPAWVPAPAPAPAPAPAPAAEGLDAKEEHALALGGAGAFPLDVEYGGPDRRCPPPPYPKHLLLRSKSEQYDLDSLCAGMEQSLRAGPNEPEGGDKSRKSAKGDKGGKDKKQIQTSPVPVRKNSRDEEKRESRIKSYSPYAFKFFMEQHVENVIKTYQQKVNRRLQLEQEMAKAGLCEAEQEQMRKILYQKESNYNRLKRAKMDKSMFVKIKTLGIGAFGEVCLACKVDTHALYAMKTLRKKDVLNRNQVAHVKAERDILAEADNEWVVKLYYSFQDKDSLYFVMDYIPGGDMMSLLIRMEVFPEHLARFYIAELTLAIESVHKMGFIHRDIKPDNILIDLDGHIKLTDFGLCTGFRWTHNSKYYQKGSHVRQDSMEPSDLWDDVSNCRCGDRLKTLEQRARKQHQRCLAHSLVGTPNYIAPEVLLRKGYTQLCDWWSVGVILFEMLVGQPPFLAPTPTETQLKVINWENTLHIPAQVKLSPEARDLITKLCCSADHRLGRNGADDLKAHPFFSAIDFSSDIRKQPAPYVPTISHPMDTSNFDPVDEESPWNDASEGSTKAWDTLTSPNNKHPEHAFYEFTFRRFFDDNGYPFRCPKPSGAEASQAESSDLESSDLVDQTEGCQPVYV

CN(C(=O)CN1CCOCC1)c1ccc2sc3c(-c4cccc5c(=O)cc(N6CC7CCC(C6)O7)oc45)cccc3c2c1 [NU5455]
% displacement: 4.7%
